Reference: publication PMC10415461 (Molecular Diversity, 2022)
In brackets after ≈: the same amount, converted by molar mass. Where two headings read alike, the source gives them in different places.

Legend:
S. aureus (ATCC 6538) = test: Antibacterial MIC, standard agar cup diffusion method; assay type: cell-based, Staphylococcus aureus; details: Staphylococcus aureus, ATCC6538, 37 °C, 24 h, read-out: MIC S. aureus (Gram-positive)
Protocol: (§1) The antibacterial and antifungal activities of compounds, ketone 1, 2a-j, and 5a-i were evaluated in vitro against S. aureus (ATCC 6538), P. aeruginosa (ATCC 10,145), E. coli (ATCC 8739), and C. albicans (ATCC 10,231). […] Standard strains of Staphylococcus aureus (ATCC 6538), Pseudomonas aeruginosa (ATCC 10,145), and Escherichia coli (ATCC 8739) were obtained from microbiological resource center, Faculty of Agriculture, Ain Shams University, Cairo, Egypt. All isolates were maintained at -70 °C in Trypticase Soya Broth (TSB, Becton, and Dickinson) with 10% glycerol. Prior to inoculation, all isolates were subcultured at 37 °C for 24 h on Trypticase Soya Agar (TSA, Becton, and Dickinson) and TSB, respectively.
(§2) The plates were rotated slowly to ensure uniform distribution of the microorganisms and then allowed to solidify on a flat surface. After solidification, four equidistant and circular wells of 10 mm diameter were carefully punched using a sterile cork bore. Twofold serial dilutions of the tested compounds using DMSO were performed. An equal volume of 100µL of each dilution was applied separately to each well in three replicates using a micropipette. All plates were incubated at 37 °C for 24 h. The inhibition zones were measured, and their average was calculated.

E. coli (ATCC 8739) = test: as above; assay type: cell-based; details: Escherichia coli, ATCC8739, 37 °C, 24 h, read-out: MIC E. coli (Gram-negative)
Protocol: as §1, §2

[1] = test system: P. aeruginosa (ATCC 10,145); test: as above; assay type: cell-based; details: Pseudomonas aeruginosa, ATCC 10145, 37 °C, 24 h, read-out: MIC P. aeruginosa (Gram-negative)
Protocol: as §1, §2

[2] = test system: tested bacterial strains (Gram positive or Gram negative: S. aureus, P. aeruginosa, E. coli); test: Antibacterial MIC range over the tested bacterial strains; assay type: cell-based; details: range over Gram positive and Gram negative strains
Protocol: . Standard strains of Staphylococcus aureus (ATCC 6538), Pseudomonas aeruginosa (ATCC 10,145), and Escherichia coli (ATCC 8739) were obtained from microbiological resource center, Faculty of Agriculture, Ain Shams University, Cairo, Egypt. All isolates were maintained at -70 °C in Trypticase Soya Broth (TSB, Becton, and Dickinson) with 10% glycerol. Prior to inoculation, all isolates were subcultured at 37 °C for 24 h on Trypticase Soya Agar (TSA, Becton, and Dickinson) and TSB, respectively.
as §2, with “calculated. The MIC was calculated by plotting the natural logarithm of the concentration of each dilution of the tested compounds against the square of zones of inhibition, and a regression line was drawn through the points then the antilogarithm of the intercept on the logarithm of concentration axis gave the MIC value.” for “calculated.”

physchem = details: pH 7.8
Protocol: The n-octanol/water apparent partition coefficient at the isoelectric point (or distribution constant) was measured by using the traditional shake-flask technique. The pH of the aqueous buffer was first adjusted to isoelectric point of the compound. The n-octanol and aqueous phases were then mutually saturated before the measurement. […] The samples were agitated for 5h at water bath shaker thermostatized at 25 ± 1^◦C and 100 rpm. The concentration of the solute was determined in the aqueous and organic phases at the isoelectric point by UV spectroscopy the log p value was calculated as follows: […].

[3] = Solubility determination in phosphate buffer; assay type: physicochemical; details: aqueous buffer, thermodynamic from solid
Protocol: A sample of drug was accurately weighed and dissolved in 100 ml of distilled water to prepare 100 mcg/ml stock solutions. Appropriate dilution of the stock solution with phosphate buffer pH 6.8 and 7.8 was then made to prepare a working solution of 40mcg/ml.
After determination of λ max of drug, a calibration curve was constructed by preparing solutions containing different concentrations of (1–5 mcg/ml) from stock solution after appropriate dilution with phosphate buffer pH 6.8. The UV absorbance of the prepared sample solutions were measured at the predetermined λ max using phosphate buffer pH 6.8 as a blank.
Aqueous solubility of the complexes was measured as a function of pH. An excess of each derivative was placed into suitable stoppered containers. […] The samples were immersed in a water bath thermostatized at 37 ± 1^◦C and 100 rpm and periodically shaken for 48 h. Once the equilibrium was reached, the pH of the supernatant was regarded.

S. aureus DNA gyrase = S. aureus DNA gyrase (Staphylococcus aureus, UniProt P0A0K8+P20831); test: Staphylococcus aureus DNA gyrase supercoiling assay; assay type: biochemical; details: supercoiling of relaxed pBR322, 37 °C, 30 min; read-out: S. aureus DNA gyrase IC50 ± SD
Protocol: As antibacterial agents, fluoroquinolones act by targeting and inhibiting DNA gyrase (topo II) which is an essential enzyme involved in the DNA replication process.
Staphylococcus aureus DNA gyrase was incubated at 37 °C for 30 min in a total reaction volume of 30 μl containing 40 mM HEPES. KOH (pH 7.6), 10 mM magnesium acetate, 10 mM DTT, 2 mM ATP, 500 mM potassium glutamate, 0.05 mg/ml albumin and Relaxed pBR322. DNA gyrase supercoiling reactions catalyzed by S. aureus gyrase, Stop reaction by adding 30 μL of STEB and 30 μL of chloroform/isoamyl alcohol (v:v, 24:1),and then Vortex briefly ~ 5 secs and centrifuge for 1 min. after which 20 µL of this was loaded on a 1% agarose gel that was then run at ~ 75 V for approximately 2 h. The gel was stained by (0.5 mg/L) ethidium bromide in water. Fluorescent images were taken at a wavelength of 300 nm on a UV transilluminator imaging system. The fluorescence intensity of the supercoiled plasmid reaction product was quantitated using ImagQuant software (Molecular Dynamics).

[4] = test system: C. albicans (ATCC 10,231); test: Antifungal MIC, agar cup diffusion method; assay type: cell-based, Candida albicans; details: Sabouraud agar, 37 °C; for MIC: Candida albicans, ATCC 10,231, 24 h, read-out: MIC C. albicans (Fungi)
Protocol: The antibacterial and antifungal activities of compounds, ketone 1, 2a-j, and 5a-i were evaluated in vitro against S. aureus (ATCC 6538), P. aeruginosa (ATCC 10,145), E. coli (ATCC 8739), and C. albicans (ATCC 10,231). […] The antifungal activity of compounds 1, 2a-j, and 5a-i and ketoconazole were determined according to the agar cup diffusion method at Deraya University, Faculty of Pharmacy, Department of Microbiology.
Fungal strains and culture conditions. […] Standard strain of Candida albicans (ATCC 10,231) was obtained from microbiological resource center, Faculty of Agriculture, Ain Shams University, Cairo, Egypt. The isolate was maintained at -70 °C in Trypticase Soya Broth (TSB, Becton, and Dickinson) with 10% glycerol. Prior to inoculation, the isolate was subcultured at 37 °C for 24 h on Trypticase Soya Agar (TSA, Becton, and Dickinson) and TSB, respectively.
as §2

[5] = test system: all tested strains, either Gram-positive or Gram-negative pathogens; parameters: method as in doi:10.1016/j.cclet.2016.12.012, doi:10.1515/hc-2016-0125; details: reference drug; cited from earlier work
[6] = test system: Gram negative and Gram positive; parameters: method as in PMID 14623004; details: cited from earlier work
[7] = test system: fluoroquinolones, vancomycin, and/or linezolid-resistant strains; details: cited from earlier work
Gram-negative pathogens = test system: Gram-negative pathogens; parameters: method as in doi:10.1016/j.cclet.2016.12.012, doi:10.1515/hc-2016-0125; details: cited from earlier work
Gram-positive pathogens = test system: Gram-positive pathogens; parameters: method as in doi:10.1016/j.cclet.2016.12.012, doi:10.1515/hc-2016-0125; details: cited from earlier work
[8] = phosphate buffer pH 6.8, 37 °C, read-out: Solubility pH 6.8
[9] = phosphate buffer pH 7.8, 37 °C, read-out: Solubility pH 7.8

Sequence of S. aureus DNA gyrase (P20831 whole entry): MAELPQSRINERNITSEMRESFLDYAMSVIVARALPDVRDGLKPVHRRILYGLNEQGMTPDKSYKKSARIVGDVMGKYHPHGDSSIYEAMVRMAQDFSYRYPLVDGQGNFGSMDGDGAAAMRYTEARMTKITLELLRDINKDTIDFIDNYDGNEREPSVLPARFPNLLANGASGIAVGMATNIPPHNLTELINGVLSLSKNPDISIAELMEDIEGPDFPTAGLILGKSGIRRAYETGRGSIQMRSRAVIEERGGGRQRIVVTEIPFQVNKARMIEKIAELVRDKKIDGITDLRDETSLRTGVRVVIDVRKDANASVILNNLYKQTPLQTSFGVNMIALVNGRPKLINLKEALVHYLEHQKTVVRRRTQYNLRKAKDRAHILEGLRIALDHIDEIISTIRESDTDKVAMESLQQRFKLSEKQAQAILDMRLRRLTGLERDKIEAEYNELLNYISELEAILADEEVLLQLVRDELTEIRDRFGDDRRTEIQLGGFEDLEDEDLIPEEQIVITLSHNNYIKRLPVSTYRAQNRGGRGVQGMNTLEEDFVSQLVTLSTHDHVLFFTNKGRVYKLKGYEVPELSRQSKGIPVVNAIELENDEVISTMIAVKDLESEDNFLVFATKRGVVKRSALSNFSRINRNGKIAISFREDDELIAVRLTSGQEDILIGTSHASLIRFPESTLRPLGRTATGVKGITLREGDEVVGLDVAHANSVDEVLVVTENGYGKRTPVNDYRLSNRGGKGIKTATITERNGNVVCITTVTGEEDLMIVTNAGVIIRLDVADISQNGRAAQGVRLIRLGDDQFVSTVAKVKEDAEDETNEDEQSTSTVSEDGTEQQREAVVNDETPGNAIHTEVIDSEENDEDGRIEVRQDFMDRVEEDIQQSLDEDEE
Sequence of S. aureus DNA gyrase (P0A0K8 whole entry): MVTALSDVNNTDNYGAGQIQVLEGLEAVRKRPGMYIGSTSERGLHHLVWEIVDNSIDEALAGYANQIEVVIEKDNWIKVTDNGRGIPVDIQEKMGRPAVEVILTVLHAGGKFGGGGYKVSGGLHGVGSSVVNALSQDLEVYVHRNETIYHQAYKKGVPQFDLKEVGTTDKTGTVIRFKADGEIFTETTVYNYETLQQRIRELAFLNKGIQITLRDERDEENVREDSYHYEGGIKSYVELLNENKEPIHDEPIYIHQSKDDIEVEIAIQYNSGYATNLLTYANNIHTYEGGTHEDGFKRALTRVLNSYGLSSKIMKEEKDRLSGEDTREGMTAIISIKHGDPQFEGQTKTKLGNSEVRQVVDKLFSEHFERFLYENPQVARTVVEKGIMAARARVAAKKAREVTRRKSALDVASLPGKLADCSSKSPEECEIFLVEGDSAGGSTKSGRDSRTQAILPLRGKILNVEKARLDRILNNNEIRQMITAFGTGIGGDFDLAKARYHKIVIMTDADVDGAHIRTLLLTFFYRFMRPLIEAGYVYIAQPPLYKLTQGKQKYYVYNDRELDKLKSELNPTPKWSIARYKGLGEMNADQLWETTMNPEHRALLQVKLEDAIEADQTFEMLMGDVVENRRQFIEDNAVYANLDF

SMILES | MIC (S. aureus (ATCC 6538)) [µg/mL] | MIC (E. coli (ATCC 8739)) [µg/mL] | MIC [1] [µg/mL] | MIC range against the tested bacterial strains [2] [µg/mL] | logD (physchem) | solubility at 48 h [3, 8] [µg/mL] | solubility at 48 h [3, 9] [µg/mL] | IC50 (S. aureus DNA gyrase) [µM] | MIC [4] [µg/mL] | MIC C. albicans (Fungi) ([4]; 24 h) [µg/mL] | melting point [°C] | MIC [5] [µg/mL] | MIC range [6] [µg/mL] | MIC range [7] [µg/mL] | MIC (Gram-negative pathogens) [µg/mL] | MIC (Gram-positive pathogens) [µg/mL]
O=C(O)c1cn(C2CC2)c2cc(N3CCNCC3)c(F)cc2c1=O [Ciprofloxacin, reference compound] | 3.25 (≈ 9.81 µM) | 0.15 (≈ 0.453 µM) | 0.22 (≈ 0.664 µM) | 0.15 to 3.25 | – | – | – | – | – | – | – | – | – | – | – | –
O=C(/C=C/c1cccc(Cl)c1)c1ccc(NC(=O)N2CCN(c3cc4c(cc3F)c(=O)c(C(=O)O)cn4C3CC3)CC2)cc1 [Compound 2b] | 0.06 (≈ 0.0976 µM) | 0.18 (≈ 0.293 µM) | 0.64 (≈ 1.04 µM) | 0.06 to 1.53 | 0.31 | 160 (≈ 260 µM) | 180 (≈ 293 µM) | 0.231 ± 0.01 | 15.2 (≈ 24.8 µM) | – | – | – | – | – | – | –
O=C(/C=C/c1ccc(Cl)cc1)c1ccc(NC(=O)N2CCN(c3cc4c(cc3F)c(=O)c(C(=O)O)cn4C3CC3)CC2)cc1 [Compound 2c] | 0.67 (≈ 1.09 µM) | 0.34 (≈ 0.553 µM) | 1.03 (≈ 1.67 µM) | 0.06 to 1.53 | 0.07 | 130 (≈ 211 µM) | 150 (≈ 244 µM) | 3 ± 0.16 | 2.03 to 3.89 (≈ 3.3 to 6.32 µM) | 3.89 (≈ 6.32 µM) | – | – | – | – | – | –
N#Cc1c(-c2ccccc2)nc(SCC(=O)N2CCN(c3cc4c(cc3F)c(=O)c(C(=O)O)cn4C3CC3)CC2)[nH]c1=O [Compound 5a, 7-(4-(2-((5-Cyano-6-oxo-4-phenyl-1,6-dihydropyrimidin-2-yl)thio)acetyl)piperazin-1-yl)-1-cyclopropyl-6-fluoro-4-oxo-1,4-dihydroquinoline-3-carboxylic acid] | 0.36 (≈ 0.599 µM) | 0.91 (≈ 1.52 µM) | 1.53 (≈ 2.55 µM) | 0.06 to 1.53 | – | – | – | 4.55 ± 0.24 | 6.23 (≈ 10.4 µM) | – | 237 to 240 | – | – | – | – | –
N#Cc1c(-c2cccc(Cl)c2)nc(SCC(=O)N2CCN(c3cc4c(cc3F)c(=O)c(C(=O)O)cn4C3CC3)CC2)[nH]c1=O [Compound 5b, 7-(4-(2-((4-(3-Chlorophenyl)-5-cyano-6-oxo-1,6-dihydropyrimidin-2-yl)thio)acetyl)piperazin-1-yl)-1-cyclopropyl-6-fluoro-4-oxo-1,4-dihydroquinoline-3-carboxylic acid] | 0.7 (≈ 1.1 µM) | 0.12 (≈ 0.189 µM) | 0.19 (≈ 0.299 µM) | 0.06 to 1.53 | – | – | – | 1.27 ± 0.07 | > 100 | – | 248 to 251 | – | – | – | – | –
COc1ccc(-c2nc(SCC(=O)N3CCN(c4cc5c(cc4F)c(=O)c(C(=O)O)cn5C4CC4)CC3)[nH]c(=O)c2C#N)cc1OC [Compound 5h, 7-(4-(2-((5-Cyano-4-(3,4-dimethoxyphenyl)-6-oxo-1,6-dihydropyrimidin-2-yl)thio)acetyl)piperazin-1-yl)-1-cyclopropyl-6-fluoro-4-oxo-1,4-dihydroquinoline-3-carboxylic acid] | 0.34 (≈ 0.515 µM) | 0.21 (≈ 0.318 µM) | 0.49 (≈ 0.742 µM) | 0.06 to 1.53 | – | – | – | 1.46 ± 0.08 | 28.7 (≈ 43.5 µM) | – | 266 to 269 | – | – | – | – | –
COc1cc(-c2nc(SCC(=O)N3CCN(c4cc5c(cc4F)c(=O)c(C(=O)O)cn5C4CC4)CC3)[nH]c(=O)c2C#N)cc(OC)c1OC [Compound 5i, 7-(4-(2-((5-Cyano-6-oxo-4-(3,4,5-trimethoxyphenyl)-1,6-dihydropyrimidin-2-yl)thio)acetyl)piperazin-1-yl)-1-cyclopropyl-6-fluoro-4-oxo-1,4-dihydroquinoline-3-carboxylic acid] | 0.74 (≈ 1.07 µM) | 0.63 (≈ 0.912 µM) | 0.13 (≈ 0.188 µM) | 0.06 to 1.53 | – | – | – | 1.41 ± 0.07 | > 100 | – | 284 to 285 | – | – | – | – | –
CC1(C)S[C@@H]2[C@H](NC(=O)[C@H](N)c3ccccc3)C(=O)N2[C@H]1C(=O)O [ampicillin] | – | – | – | – | – | – | – | – | – | – | – | 3.9 to 250 | – | – | – | –
CC(=O)NC[C@H]1CN(c2ccc(N3CCN(c4cc5c(cc4F)c(=O)c(C(=O)O)cn5C4CC4)CC3)c(F)c2)C(=O)O1 [hybrid II] | – | – | – | – | – | – | – | – | – | – | – | – | 0.125 to 4 | 0.25 to 0.5 | – | –
COc1cccc(-c2nn(CN3CCN(c4cc5c(cc4F)c(=O)c(C(=O)O)cn5C4CC4)CC3)c(=S)n2Cc2ccc(Br)cc2Cl)c1 [hybrid I] | – | – | – | – | – | – | – | – | – | – | – | – | – | – | 0.01 to 1.32 | < 0.24
